{
  "source": "patent US20090312280A1",
  "key": {"[1]": {"molecular_target": "Yes (Homo sapiens, UniProt P07947)", "sequence (P07947 whole entry)": "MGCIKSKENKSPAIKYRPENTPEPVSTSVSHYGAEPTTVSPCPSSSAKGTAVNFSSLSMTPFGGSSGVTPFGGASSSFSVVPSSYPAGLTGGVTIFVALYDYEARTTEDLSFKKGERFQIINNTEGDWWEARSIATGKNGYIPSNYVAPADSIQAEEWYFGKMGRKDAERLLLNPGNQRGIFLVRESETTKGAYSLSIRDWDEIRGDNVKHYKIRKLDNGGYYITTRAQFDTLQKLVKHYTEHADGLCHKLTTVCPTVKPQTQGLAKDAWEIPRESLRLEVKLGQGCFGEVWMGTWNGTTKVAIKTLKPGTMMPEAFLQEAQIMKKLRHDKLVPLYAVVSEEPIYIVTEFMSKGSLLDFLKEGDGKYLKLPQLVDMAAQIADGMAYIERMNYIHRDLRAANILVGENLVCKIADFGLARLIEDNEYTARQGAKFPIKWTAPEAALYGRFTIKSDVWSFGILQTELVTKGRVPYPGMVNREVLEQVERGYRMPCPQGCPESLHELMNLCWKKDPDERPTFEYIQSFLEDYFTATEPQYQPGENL", "assay": "biochemical kinase screening assay"}, "[2]": {"molecular_target": "Fms (Homo sapiens, UniProt P07333)", "sequence (P07333 20-972)": "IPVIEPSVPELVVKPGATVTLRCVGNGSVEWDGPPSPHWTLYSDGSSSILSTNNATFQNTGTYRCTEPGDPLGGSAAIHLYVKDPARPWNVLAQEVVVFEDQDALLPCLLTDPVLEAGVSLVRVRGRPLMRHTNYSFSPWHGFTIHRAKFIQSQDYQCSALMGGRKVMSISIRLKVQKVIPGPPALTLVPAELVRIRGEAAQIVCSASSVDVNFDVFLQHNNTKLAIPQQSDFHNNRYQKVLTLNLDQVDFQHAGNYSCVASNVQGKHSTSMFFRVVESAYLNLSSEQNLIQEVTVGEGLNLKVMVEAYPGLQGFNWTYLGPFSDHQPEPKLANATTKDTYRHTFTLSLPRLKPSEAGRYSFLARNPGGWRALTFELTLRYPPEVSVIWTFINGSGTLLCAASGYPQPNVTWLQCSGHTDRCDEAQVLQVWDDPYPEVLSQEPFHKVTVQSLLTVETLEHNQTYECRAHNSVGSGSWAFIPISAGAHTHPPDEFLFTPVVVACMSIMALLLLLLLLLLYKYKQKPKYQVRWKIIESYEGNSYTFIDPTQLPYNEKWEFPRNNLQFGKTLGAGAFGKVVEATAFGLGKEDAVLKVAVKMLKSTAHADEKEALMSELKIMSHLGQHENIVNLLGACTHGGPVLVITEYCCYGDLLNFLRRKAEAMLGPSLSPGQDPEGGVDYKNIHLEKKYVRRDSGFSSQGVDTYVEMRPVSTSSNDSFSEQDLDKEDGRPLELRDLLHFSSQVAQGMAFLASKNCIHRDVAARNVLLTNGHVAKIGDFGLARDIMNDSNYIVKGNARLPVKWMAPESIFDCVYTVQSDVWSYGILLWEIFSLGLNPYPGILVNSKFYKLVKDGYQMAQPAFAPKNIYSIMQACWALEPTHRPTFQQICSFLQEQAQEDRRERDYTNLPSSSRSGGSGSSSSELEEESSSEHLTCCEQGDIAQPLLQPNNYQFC", "assay": "biochemical kinase screening assay"}, "[3]": {"molecular_target": "Flt3 (Homo sapiens, UniProt P36888)", "sequence (P36888 27-993)": "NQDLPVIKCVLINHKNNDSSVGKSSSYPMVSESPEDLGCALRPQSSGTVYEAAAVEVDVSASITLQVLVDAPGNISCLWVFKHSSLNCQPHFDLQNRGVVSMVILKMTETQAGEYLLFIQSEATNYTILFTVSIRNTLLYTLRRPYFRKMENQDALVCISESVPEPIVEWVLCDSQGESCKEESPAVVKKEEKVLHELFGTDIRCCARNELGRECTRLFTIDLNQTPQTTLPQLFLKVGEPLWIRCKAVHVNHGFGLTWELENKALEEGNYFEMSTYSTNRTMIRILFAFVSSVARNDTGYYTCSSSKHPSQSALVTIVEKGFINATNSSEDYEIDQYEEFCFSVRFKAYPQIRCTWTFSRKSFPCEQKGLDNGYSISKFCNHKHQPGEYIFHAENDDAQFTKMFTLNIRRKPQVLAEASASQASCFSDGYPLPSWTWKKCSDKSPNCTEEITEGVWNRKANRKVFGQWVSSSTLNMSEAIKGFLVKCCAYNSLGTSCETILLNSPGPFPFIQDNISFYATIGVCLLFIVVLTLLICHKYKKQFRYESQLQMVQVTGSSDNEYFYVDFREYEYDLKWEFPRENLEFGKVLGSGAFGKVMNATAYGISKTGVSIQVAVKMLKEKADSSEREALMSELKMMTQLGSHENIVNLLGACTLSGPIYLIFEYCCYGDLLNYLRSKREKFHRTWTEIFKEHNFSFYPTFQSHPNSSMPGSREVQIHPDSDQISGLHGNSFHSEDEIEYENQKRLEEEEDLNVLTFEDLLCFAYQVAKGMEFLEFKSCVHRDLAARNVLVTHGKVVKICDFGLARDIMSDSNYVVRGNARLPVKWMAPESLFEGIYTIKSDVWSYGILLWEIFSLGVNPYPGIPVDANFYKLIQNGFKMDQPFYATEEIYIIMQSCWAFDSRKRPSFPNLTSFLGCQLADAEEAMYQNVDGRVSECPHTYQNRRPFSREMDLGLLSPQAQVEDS", "assay": "biochemical kinase screening assay"}, "[4]": {"molecular_target": "Ret (Homo sapiens, UniProt P07949)", "sequence (P07949 29-1114)": "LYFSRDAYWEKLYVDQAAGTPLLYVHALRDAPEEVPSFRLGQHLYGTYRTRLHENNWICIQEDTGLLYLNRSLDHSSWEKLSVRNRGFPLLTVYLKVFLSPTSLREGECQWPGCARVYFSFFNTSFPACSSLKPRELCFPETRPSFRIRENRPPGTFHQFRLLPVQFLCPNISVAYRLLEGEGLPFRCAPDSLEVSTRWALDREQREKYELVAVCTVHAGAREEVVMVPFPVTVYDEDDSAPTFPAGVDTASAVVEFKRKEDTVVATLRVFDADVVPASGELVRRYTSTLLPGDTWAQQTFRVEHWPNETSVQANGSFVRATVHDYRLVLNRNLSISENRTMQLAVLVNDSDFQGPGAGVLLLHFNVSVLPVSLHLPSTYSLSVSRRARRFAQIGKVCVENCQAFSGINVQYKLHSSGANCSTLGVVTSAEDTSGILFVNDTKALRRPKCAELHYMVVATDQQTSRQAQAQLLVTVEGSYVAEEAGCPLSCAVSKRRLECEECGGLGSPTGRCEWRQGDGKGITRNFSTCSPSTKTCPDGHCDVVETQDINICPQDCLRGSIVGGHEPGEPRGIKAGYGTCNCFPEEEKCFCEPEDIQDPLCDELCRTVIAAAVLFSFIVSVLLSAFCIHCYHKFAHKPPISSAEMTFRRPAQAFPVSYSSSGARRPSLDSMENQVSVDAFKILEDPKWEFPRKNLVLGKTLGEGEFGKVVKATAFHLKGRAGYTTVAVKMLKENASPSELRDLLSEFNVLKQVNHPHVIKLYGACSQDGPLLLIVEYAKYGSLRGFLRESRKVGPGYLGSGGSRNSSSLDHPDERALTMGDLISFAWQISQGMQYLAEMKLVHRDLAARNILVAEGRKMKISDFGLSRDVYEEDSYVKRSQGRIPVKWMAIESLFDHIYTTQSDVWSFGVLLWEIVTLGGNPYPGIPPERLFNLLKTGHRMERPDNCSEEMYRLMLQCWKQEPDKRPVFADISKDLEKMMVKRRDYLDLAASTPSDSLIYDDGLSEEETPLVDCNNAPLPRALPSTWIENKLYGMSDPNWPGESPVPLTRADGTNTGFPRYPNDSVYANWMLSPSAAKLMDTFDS", "assay": "biochemical kinase screening assay"}, "[5]": {"molecular_target": "P70S6K (Homo sapiens, UniProt P23443)", "assay": "biochemical kinase screening assay"}, "[6]": {"molecular_target": "Lyn (Homo sapiens, UniProt P07948)", "assay": "biochemical kinase screening assay"}, "[7]": {"molecular_target": "PDK1 (Homo sapiens, UniProt O15530)", "assay": "biochemical kinase screening assay"}, "[8]": {"molecular_target": "PDGFRa (Homo sapiens, UniProt P16234)", "sequence (P16234 24-1089)": "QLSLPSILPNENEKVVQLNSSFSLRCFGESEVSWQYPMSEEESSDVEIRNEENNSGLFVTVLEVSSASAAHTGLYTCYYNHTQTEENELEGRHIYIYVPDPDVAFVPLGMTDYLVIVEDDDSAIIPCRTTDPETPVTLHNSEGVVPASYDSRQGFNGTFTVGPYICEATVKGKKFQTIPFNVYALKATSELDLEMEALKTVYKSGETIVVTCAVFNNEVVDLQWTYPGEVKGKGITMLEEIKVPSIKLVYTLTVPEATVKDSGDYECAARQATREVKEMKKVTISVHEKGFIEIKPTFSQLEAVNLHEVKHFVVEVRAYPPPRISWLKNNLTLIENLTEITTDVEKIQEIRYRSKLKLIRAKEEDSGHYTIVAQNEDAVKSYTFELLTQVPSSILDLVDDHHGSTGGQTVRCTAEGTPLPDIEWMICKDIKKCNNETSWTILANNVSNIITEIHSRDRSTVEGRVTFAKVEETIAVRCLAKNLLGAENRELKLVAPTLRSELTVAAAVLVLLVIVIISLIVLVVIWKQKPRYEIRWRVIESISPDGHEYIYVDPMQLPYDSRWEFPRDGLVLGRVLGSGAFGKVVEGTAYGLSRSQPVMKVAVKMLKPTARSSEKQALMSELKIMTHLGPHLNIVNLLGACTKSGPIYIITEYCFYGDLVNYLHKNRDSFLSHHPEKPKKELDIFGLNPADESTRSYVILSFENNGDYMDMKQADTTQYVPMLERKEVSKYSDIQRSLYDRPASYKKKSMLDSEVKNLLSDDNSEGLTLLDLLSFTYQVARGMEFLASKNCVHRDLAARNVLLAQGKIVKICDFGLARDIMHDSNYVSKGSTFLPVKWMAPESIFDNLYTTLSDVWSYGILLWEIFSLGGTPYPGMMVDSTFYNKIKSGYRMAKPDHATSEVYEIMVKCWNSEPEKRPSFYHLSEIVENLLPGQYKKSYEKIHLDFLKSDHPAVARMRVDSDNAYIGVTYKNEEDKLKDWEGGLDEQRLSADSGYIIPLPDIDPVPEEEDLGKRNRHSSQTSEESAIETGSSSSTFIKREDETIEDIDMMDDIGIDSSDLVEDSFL", "assay": "biochemical kinase screening assay"}, "[9]": {"system": "gemcitabine induced S-Phase arrest", "assay": "flow cytometry cell cycle / apoptosis analysis", "type": "cell-based"}, "[10]": {"system": "MDA-MB-231 (Breast)", "assay": "cell survival / MTT combination cytotoxicity", "type": "cell-based, human", "details": "Homo sapiens"}, "[11]": {"system": "wild type p53 HCT116 cells", "assay": "cell survival assay, transiently transfected p53 wild type", "type": "cell-based, human", "details": "Compound 1 + gemcitabine compared with gemcitabine alone", "method": "The cytotoxic effect induced by the combination treatment in HUVEC cells is negligible compared with the cytotoxicity induced by the same treatment in tumor cells. […] A cell survival assay was also performed in HTC116 cells (human colon carcinoma) that were transiently transfected with a plasmid containing either p53 wild type or mutant."}, "[12]": {"system": "A431 tumor xenografts", "assay": "in vivo radio sensitizing study, A431 xenograft", "parameters": "species or system mice", "details": "for Normalized Tumor Growth Delay: versus drug alone; for Tumor Growth Delay: versus vehicle control", "source_text": "Female Balb/c nude mice (Age 6 weeks) were inoculated on the right hind limb with 3×10^6 A431 cells in PBS and allowed the tumor to grow to a mean tumor volume ˜100 mm^3. The mice were randomized into groups of 10 animals each group.\nThe unanaesthetized mice were then subjected to radiation. Radiation was delivered using a 6 MeV high dose rate electron beam from a Varian 2100 Linear Accelerator (Palo Alto, Calif.). The dose rate used was 20 Gy/min. The depth-dose characteristics of the electron beam were such that dose uniformity to within ±5 % was obtained over a 10 mm depth of tissue. This was sufficient to cover all tumor irradiated. The tumor was irradiated though a 25 mm square collimator cut from 3 mm thick lead sheet attached to a 6 mm thick Perspex sheet. The separation between the tumor and the lower (Perspex) side of the surface collimator was approximately 25 mm. The apparatus was supported on a plate heated to 37° C. in order to reduce the effects of heat loss in the mice. Radiation doses were calculated and delivered by a senior radiation physicist. Radiotherapy was given as described above on Days 0-4 as 2, 3 or 4 Gy daily fractions.\nThe solution was prepared immediately prior to dosing and (15 mg/kg) was administered by intraperitoneal injection at 15 mg/kg on Days 0-4 immediately following radiotherapy. The above solution that contains no Compound 1 is considered as the “drug vehicle” or “vehicle”. Drug vehicle was administered at 0.1 ml/10 g body weight on the same schedule.\nEach group of mice were treated with Compound 1 only, radiation only, or the combination of Compound 1 and radiation. Animals were sacrificed when Tumor Volume Ratio (TVR) reached or exceeded 4 or if the mouse had lost more than 15% of its baseline body weight at Day 0. Tumor Volume Ratio is defined as the ratio between the tumors volume at a particular time and the baseline tumor volume, which is the tumor volume at Day 0.\nTumor volume was measured three times weekly from day 0 to day 11 and even further to day 23. Tumor volume was measured using electronic calipers and calculated as length/2×width^2. The mean tumor volume was calculated for each group of mice.\nTumor growth delay is defined as the median time in days for tumors to reach a TVR of 4 minus time for vehicle control tumors to reach the same size. Normalized growth delay is defined as the time in days for tumors in combination treated mice to reach TVR of 4 minus time in days for tumors in drug alone treated mice to reach the same size. Enhancement ratio is defined as normalized tumor growth delay in mice treated with drug and radiation divided by tumor growth delay in mice treated with radiation alone."}, "[13]": {"details": "Compound 1 15 mg/kg IP plus Radiation (2 Gy × 5)"}, "[14]": {"details": "Compound 1 15 mg/kg IP plus Radiation (3 Gy × 5)"}, "[15]": {"details": "Compound 1 15 mg/kg IP plus Radiation (4 Gy × 5)"}, "[16]": {"details": "Compound 1 alone, 15 mg/kg IP Days 0-4"}},
  "data": [
    {"smiles": "Cn1cc(-c2[nH]c3cc(NC(=O)[C@H](N)C4CCCCC4)cc4c3c2C=NNC4=O)cn1", "note": "[Compound 1]", "values": [
      {"measurement": "IC50", "setting": "[1]", "result": 14, "unit": "nM"},
      {"measurement": "IC50", "setting": "[2]", "result": 10, "unit": "nM"},
      {"measurement": "IC50", "setting": "[3]", "result": 25, "unit": "nM"},
      {"measurement": "IC50", "setting": "[4]", "result": 39, "unit": "nM"},
      {"measurement": "IC50", "setting": "[5]", "result": 61, "unit": "nM"},
      {"measurement": "IC50", "setting": "[6]", "result": 266, "unit": "nM"},
      {"measurement": "IC50", "setting": "[7]", "result": 439, "unit": "nM"},
      {"measurement": "IC50", "setting": "[8]", "result": 2810, "unit": "nM"},
      {"measurement": "S-Phase arrest by flow cytometry", "setting": "[9]; combination with gemcitabine", "result": "abrogation of gemcitabine induced S-Phase arrest"},
      {"measurement": "apoptotic cells by flow cytometry", "setting": "[9]; gemcitabine + Compound 1 compared with gemcitabine alone", "result": "significant increase in apoptotic cells"},
      {"measurement": "effect on cell cycle", "setting": "[9]; in the absence of DNA damage", "result": "no effect on cell cycle"},
      {"measurement": "IC50", "setting": "[10]", "result": 1400, "unit": "nM"},
      {"measurement": "cell growth inhibition", "setting": "[11]", "result": 15, "unit": "%"},
      {"measurement": "Median time to TVR = 4", "setting": "[12]; [13]", "result": 11.1, "unit": "days"},
      {"measurement": "Normalized Tumor Growth Delay", "setting": "[12]; [13]", "result": 3.75, "unit": "days"},
      {"measurement": "Tumor Growth Delay", "setting": "[12]; [13]", "result": 2.7, "unit": "days"},
      {"measurement": "Median time to TVR = 4", "setting": "[12]; [14]", "result": 15.1, "unit": "days"},
      {"measurement": "Normalized Tumor Growth Delay", "setting": "[12]; [14]", "result": 7.75, "unit": "days"},
      {"measurement": "Tumor Growth Delay", "setting": "[12]; [14]", "result": 6.7, "unit": "days"},
      {"measurement": "Median time to TVR = 4", "setting": "[12]; [15]", "result": 13, "unit": "days"},
      {"measurement": "Normalized Tumor Growth Delay", "setting": "[12]; [15]", "result": 5.65, "unit": "days"},
      {"measurement": "Tumor Growth Delay", "setting": "[12]; [15]", "result": 4.6, "unit": "days"},
      {"measurement": "Median time to TVR = 4", "setting": "[12]; [16]", "result": 7.35, "unit": "days"},
      {"measurement": "Tumor Growth Delay", "setting": "[12]; [16]", "result": -1.05, "unit": "days"},
      {"measurement": "mean tumor volume", "setting": "[12]; day 0, 2 Gy + Cmpd 1 15 mg/kg IP, Days 0-4", "result": 94.51, "unit": "mm^3"},
      {"measurement": "mean tumor volume", "setting": "[12]; day 0, 3 Gy + Cmpd 1 15 mg/kg IP, Days 0-4", "result": 104.26, "unit": "mm^3"},
      {"measurement": "mean tumor volume", "setting": "[12]; day 0, 4 Gy + Cmpd 1 15 mg/kg IP, Days 0-4", "result": 101.97, "unit": "mm^3"},
      {"measurement": "mean tumor volume", "setting": "[12]; day 0, Cmpd 1 only, 15 mg/kg IP Days 0-4", "result": 104.23, "unit": "mm^3"},
      {"measurement": "mean tumor volume", "setting": "[12]; day 2, 2 Gy + Cmpd 1 15 mg/kg IP, Days 0-4", "result": 145.53, "unit": "mm^3"},
      {"measurement": "mean tumor volume", "setting": "[12]; day 2, 3 Gy + Cmpd 1 15 mg/kg IP, Days 0-4", "result": 149.88, "unit": "mm^3"},
      {"measurement": "mean tumor volume", "setting": "[12]; day 2, 4 Gy + Cmpd 1 15 mg/kg IP, Days 0-4", "result": 150.81, "unit": "mm^3"},
      {"measurement": "mean tumor volume", "setting": "[12]; day 2, Cmpd 1 only, 15 mg/kg IP Days 0-4", "result": 158.07, "unit": "mm^3"},
      {"measurement": "mean tumor volume", "setting": "[12]; day 4, 2 Gy + Cmpd 1 15 mg/kg IP, Days 0-4", "result": 198.57, "unit": "mm^3"},
      {"measurement": "mean tumor volume", "setting": "[12]; day 4, 3 Gy + Cmpd 1 15 mg/kg IP, Days 0-4", "result": 210.23, "unit": "mm^3"},
      {"measurement": "mean tumor volume", "setting": "[12]; day 4, 4 Gy + Cmpd 1 15 mg/kg IP, Days 0-4", "result": 209.44, "unit": "mm^3"},
      {"measurement": "mean tumor volume", "setting": "[12]; day 4, Cmpd 1 only, 15 mg/kg IP Days 0-4", "result": 242.46, "unit": "mm^3"},
      {"measurement": "mean tumor volume", "setting": "[12]; day 7, 2 Gy + Cmpd 1 15 mg/kg IP, Days 0-4", "result": 255.23, "unit": "mm^3"},
      {"measurement": "mean tumor volume", "setting": "[12]; day 7, 3 Gy + Cmpd 1 15 mg/kg IP, Days 0-4", "result": 200.48, "unit": "mm^3"},
      {"measurement": "mean tumor volume", "setting": "[12]; day 7, 4 Gy + Cmpd 1 15 mg/kg IP, Days 0-4", "result": 307.93, "unit": "mm^3"},
      {"measurement": "mean tumor volume", "setting": "[12]; day 7, Cmpd 1 only, 15 mg/kg IP Days 0-4", "result": 418.28, "unit": "mm^3"},
      {"measurement": "mean tumor volume", "setting": "[12]; day 9, 2 Gy + Cmpd 1 15 mg/kg IP, Days 0-4", "result": 339.76, "unit": "mm^3"},
      {"measurement": "mean tumor volume", "setting": "[12]; day 9, 3 Gy + Cmpd 1 15 mg/kg IP, Days 0-4", "result": 164.45, "unit": "mm^3"},
      {"measurement": "mean tumor volume", "setting": "[12]; day 9, 4 Gy + Cmpd 1 15 mg/kg IP, Days 0-4", "result": 294.63, "unit": "mm^3"},
      {"measurement": "mean tumor volume", "setting": "[12]; day 9, Cmpd 1 only, 15 mg/kg IP Days 0-4", "result": 580.35, "unit": "mm^3"},
      {"measurement": "mean tumor volume", "setting": "[12]; day 11, 2 Gy + Cmpd 1 15 mg/kg IP, Days 0-4", "result": 401.96, "unit": "mm^3"},
      {"measurement": "mean tumor volume", "setting": "[12]; day 11, 3 Gy + Cmpd 1 15 mg/kg IP, Days 0-4", "result": 210.35, "unit": "mm^3"},
      {"measurement": "mean tumor volume", "setting": "[12]; day 11, 4 Gy + Cmpd 1 15 mg/kg IP, Days 0-4", "result": 487.78, "unit": "mm^3"},
      {"measurement": "mean tumor volume", "setting": "[12]; day 11, Cmpd 1 only, 15 mg/kg IP Days 0-4", "result": 790.82, "unit": "mm^3"},
      {"measurement": "mean tumor volume", "setting": "[12]; day 14, 2 Gy + Cmpd 1 15 mg/kg IP, Days 0-4", "result": 644.80, "unit": "mm^3"},
      {"measurement": "mean tumor volume", "setting": "[12]; day 14, 3 Gy + Cmpd 1 15 mg/kg IP, Days 0-4", "result": 283.51, "unit": "mm^3"},
      {"measurement": "mean tumor volume", "setting": "[12]; day 14, 4 Gy + Cmpd 1 15 mg/kg IP, Days 0-4", "result": 815.01, "unit": "mm^3"},
      {"measurement": "mean tumor volume", "setting": "[12]; day 16, 3 Gy + Cmpd 1 15 mg/kg IP, Days 0-4", "result": 408.01, "unit": "mm^3"},
      {"measurement": "mean tumor volume", "setting": "[12]; day 18, 3 Gy + Cmpd 1 15 mg/kg IP, Days 0-4", "result": 433.83, "unit": "mm^3"},
      {"measurement": "mean tumor volume", "setting": "[12]; day 21, 3 Gy + Cmpd 1 15 mg/kg IP, Days 0-4", "result": 395.17, "unit": "mm^3"},
      {"measurement": "mean tumor volume", "setting": "[12]; day 23, 3 Gy + Cmpd 1 15 mg/kg IP, Days 0-4", "result": 513.31, "unit": "mm^3"}
    ]}
  ]
}
